# Test results as given in paper PMC12269843, “The molecular basis of T cell receptor recognition of citrullinated tenascin-C presented by HLA-DR4” (The Journal of Biological Chemistry, 2025).
# pIC50: −log10 of the molar value. Where a SMILES comes first, the peptide text is derived from it.
# Tests used:
# Experiment in all cases: Fluorescence polarization peptide competition assay
# HLA-DRB1^∗04:01 = molecular target: T1, HLA-DRB1^∗04:01 (Homo sapiens, UniProt P01903+P01911, A100K/A169T/F76Y/I96L/K127E/L162R/M171V/N62H/P40V/Q125Y/R42H/S133A/S149N/S66Y/V115G/V209L/W38E); conditions: competition with 20 nM TAMRA-HA, 100 nM HLA-DRB1, 20 nM HLA-DM, 100 mM trisodium citrate pH 5.4, 50 mM NaCl, 5 mM EDTA, 37 °C, 24-72 h, two independent experiments in triplicate, read-out: IC50, competitive binding to DRB1^∗04:01
# T1 construct: the extracellular domains of the α-chain and β-chain of HLA-DRB1^∗04:01; Fos/Jun leucine zipper (C); invariant chain (CLIP) peptide, covalently linked; made in house
# Description: (§1) The fluorescent polarization was measured by PHERAstar microplate reader (BMG LABTECH) after 24 h, 48 h and 72 h incubation at 37 °C. The peptide binding curves were plotted by non-linear regression in Prism 10 (GraphPad Software, version 10.2.0) using a sigmoidal dose-response curve. […] All data were derived from two independent experiments in triplicate.
# HLA-DRB1^∗01:01 = HLA-DRB1^∗01:01 (Homo sapiens, UniProt P01903+P01911, A100R/D57E/F55L/F60I/F76Y/I96L/L162R/M171V/P40L/Q125E/R42F/V115G/Y59C); conditions: competition with 20 nM TAMRA-HA, 100 nM HLA-DRB1, 20 nM HLA-DM, 100 mM trisodium citrate pH 5.4, 50 mM NaCl, 5 mM EDTA, 37 °C, 24-72 h, two independent experiments in triplicate, read-out: IC50, competitive binding to DRB1^∗01:01
# Description: as §1
# HLA-DRB1^∗04:04 = HLA-DRB1^∗04:04 (Homo sapiens, UniProt P01903+P01911, A100R/A169T/F76Y/I96L/K127E/L162R/M171V/N62H/P40V/Q125Y/R42H/S133A/S149N/S66Y/V209L/W38E); conditions: competition with 20 nM TAMRA-HA, 100 nM HLA-DRB1, 20 nM HLA-DM, 100 mM trisodium citrate pH 5.4, 50 mM NaCl, 5 mM EDTA, 37 °C, 24-72 h, two independent experiments in triplicate, read-out: IC50, competitive binding to DRB1^∗04:04
# Description: as §1
# HLA-DRB1^∗04:05 = HLA-DRB1^∗04:05 (Homo sapiens, UniProt P01903+P01911, A100R/A169T/D86S/F76Y/I96L/K127E/L162R/M171V/N62H/P40V/Q125Y/R42H/S133A/S149N/S66Y/V115G/V209L/W38E); conditions: competition with 20 nM TAMRA-HA, 100 nM HLA-DRB1, 20 nM HLA-DM, 100 mM trisodium citrate pH 5.4, 50 mM NaCl, 5 mM EDTA, 37 °C, 24-72 h, two independent experiments in triplicate, read-out: IC50, competitive binding to DRB1^∗04:05
# Description: as §1
# HLA-DRB1^∗14:02 = HLA-DRB1^∗14:02 (Homo sapiens, UniProt P01903+P01911, A100R/A169T/D57E/F76Y/I96L/K41T/L162R/M171V/P40S/Q125H/Q178H/Q39Y/R42S/S66N/T262R/V115G/W38E/Y61H); conditions: competition with 20 nM TAMRA-HA, 100 nM HLA-DRB1, 20 nM HLA-DM, 100 mM trisodium citrate pH 5.4, 50 mM NaCl, 5 mM EDTA, 37 °C, 24-72 h, two independent experiments in triplicate, read-out: IC50, competitive binding to DRB1^∗14:02
# Description: as §1
compound,measurement,setting,value
"CC(C)C[C@H](NC(=O)[C@H](CCCNC(N)=O)NC(=O)[C@H](Cc1ccc(O)cc1)NC(=O)[C@H](CCCNC(N)=O)NC(=O)[C@@H](N)CC(=O)O)C(=O)N[C@@H](CC(N)=O)C(=O)N[C@@H](Cc1ccc(O)cc1)C(=O)N[C@@H](CO)C(=O)N[C@@H](CC(C)C)C(=O)N1CCC[C@H]1C(=O)N[C@H](C(=O)NCC(=O)O)[C@@H](C)O [TNC^1014,1016cit] (HELM PEPTIDE1{D.[Cit].Y.[Cit].L.N.Y.S.L.P.T.G}$$$$V2.0)",pIC50,HLA-DRB1^∗04:01,5.94
same,pIC50,HLA-DRB1^∗01:01,6.10
same,pIC50,HLA-DRB1^∗04:04,< 3.52
same,pIC50,HLA-DRB1^∗04:05,5.32
same,pIC50,HLA-DRB1^∗14:02,5.88
